# Test: Inhibition of IL-5 receptor in mouse pro-B Y16 cells assessed as decrease in mIL-5 dependent cell proliferation after 48 hrs in presence of 3 units/ml mIL-5 by WST-1 assay
row,SMILES,IC50
1,OCCCNCc1nc2c(OCC3CCCCC3)cccc2[nH]1,28.5 µM
2,CCN(CCO)Cc1nc2c(OCC3CCCCC3)cccc2[nH]1,> 30 µM
3,c1ccc(CNCc2nc3c(OCC4CCCCC4)cccc3[nH]2)cc1,> 30 µM
4,CC(C)(CO)NCc1nc2c(OCC3CCCCC3)cccc2[nH]1,27.5 µM
5,CC(C)N(CCO)Cc1nc2c(OCC3CCCCC3)cccc2[nH]1,> 30 µM
6,OCCN(Cc1nc2c(OCC3CCCCC3)cccc2[nH]1)C1CCCCC1,> 30 µM
7,OCCN(Cc1nc2c(OCC3CCCCC3)cccc2[nH]1)CC1CCCCC1,21 µM
8,c1ccc(NCc2nc3c(OCC4CCCCC4)cccc3[nH]2)cc1,> 30 µM
9,OCCCCNCc1nc2c(OCC3CCCCC3)cccc2[nH]1,30 µM
10,OCCN(Cc1ccccc1)Cc1nc2c(OCC3CCCCC3)cccc2[nH]1,25 µM
11,COc1ccc(CNCc2nc3c(OCC4CCCCC4)cccc3[nH]2)cc1,> 30 µM
12,OCC(NCc1nc2c(OCC3CCCCC3)cccc2[nH]1)c1ccccc1 (configuration not stated),20 µM
13,OCCCCCNCc1nc2c(OCC3CCCCC3)cccc2[nH]1,> 30 µM
14,OCCC(NCc1nc2c(OCC3CCCCC3)cccc2[nH]1)c1ccccc1 (configuration not stated),22 µM
15,CN(CCO)Cc1nc2c(OCC3CCCCC3)cccc2[nH]1,> 30 µM
16,OCCN(Cc1ccncc1)Cc1nc2c(OCC3CCCCC3)cccc2[nH]1,> 30 µM
17,COc1ccc(NCc2nc3c(OCC4CCCCC4)cccc3[nH]2)cc1,> 30 µM
18,CCCC1O[C@@H]2C[C@H]3[C@@H]4CCC5=CC(=O)C=C[C@]5(C)[C@H]4[C@@H](O)C[C@]3(C)[C@]2(C(=O)CO)O1 (some centres not stated) [BUDESONIDE],26.2 µM

# More lines, in order of falling IC50, values ahead:
row,IC50,SMILES
1,20 µM,OCCNCc1nc2c(OCC3CCCCC3)cccc2[nH]1
2,20 µM,CCCN(CCO)Cc1nc2c(OCC3CCCCC3)cccc2[nH]1
3,19 µM,COc1ccc(CN(CCO)Cc2nc3c(OCC4CCCCC4)cccc3[nH]2)cc1
4,13 µM,OCCN(Cc1ccc(Cl)cc1)Cc1nc2c(OCC3CCCCC3)cccc2[nH]1
5,12 µM,OCC(Cc1ccccc1)NCc1nc2c(OCC3CCCCC3)cccc2[nH]1 (configuration not stated)
6,10.6 µM,O=c1c(-c2ccc(O[C@@H]3O[C@H](CO)[C@@H](O)[C@H](O)[C@H]3O)cc2)coc2cc(O)cc(O)c12 [Sophoricoside]
7,7.5 µM,CCCC(CO)NCc1nc2c(OCC3CCCCC3)cccc2[nH]1 (configuration not stated)
8,5 µM,OCC(CC1CCCCC1)NCc1nc2c(OCC3CCCCC3)cccc2[nH]1 (configuration not stated)
9,3.5 µM,CCC(CO)NCc1nc2c(OCC3CCCCC3)cccc2[nH]1 (configuration not stated)
